Assay results: patent US20240139214A1, “AGENT FOR SUPPRESSING IL-31 PRODUCTION AND PHARMACEUTICAL COMPOSITION CONTAINING THE SAME” (KYUSHU UNIVERSITY, NATIONAL UNIVERSITY CORPORATION, priority 2021, published 2024)

Key:
[1] = system: mouse IL-31 gene; experiment: IL-31 production inhibitory action: IL-31 gene expression by real-time PCR in antigen-stimulated CD4+ T cells from Dock8−/− AND Tg mice; type: cell-based; settings: for activity at 0.312 µM / activity at 0.625 µM / activity at 1.25 µM / activity at 2.5 µM / activity at 0.078 µM / activity at 0.156 µM: Mus musculus, CD4+ T, 24 h, read-out: qPCR results (IL-31 production (%)): based on the case using 0.1% DMSO taken as 100%; for IL-31 production inhibitory action (in words, discussion of Table 1): relative to compound 1
[2] = system: CD4+ T cells; experiment: T cell proliferation assay (PMA and ionomycin, 3H-thymidine incorporation); type: cell-based, mouse; settings: Mus musculus, CD4+ T, 66 h, read-out: Cell proliferation (%): based on the case using 0.2% DMSO taken as 100%
Procedure: (§1) A T cell proliferation assay was performed by culturing CD4^+ T cells (5×10^4 cells) with T cell-depleted irradiated spleen cells (1×10^6 cells) in the presence of phorbol 12-myristate 13-acetate (PMA: 100 ng/ml; Sigma-Aldrich) and ionomycin (1 μg/ml; Sigma-Aldrich) for 66 hours. For the last 18 hours of culture, ^3H-thymidine (0.037 MBq) was added, and the incorporated radioactivity was measured with MicroBeta^2 (PerkinElmer, Inc., Waltham, MS).
as §1, with “hours. Test compounds were added at various final concentrations at the start of culture.” for “hours.”, “MS). […]” for “MS).”

| SMILES | activity at 0.312 µM [1] [%] | activity at 0.625 µM [1] [%] | activity at 1.25 µM [1] [%] | activity at 2.5 µM [1] [%] | activity at 10 µM [2] [%] | activity at 20 µM [2] [%] | activity at 40 µM [2] [%] | IL-31 production inhibitory action (in words, discussion of Table 1) [1] | activity at 0.078 µM [1] [%] | activity at 0.156 µM [1] [%] | activity at 5 µM [2] [%] |
| --- | --- | --- | --- | --- | --- | --- | --- | --- | --- | --- | --- |
| O=C(O)c1ccc(-c2nc(-c3cc(C(F)(F)F)ccc3Cl)n[nH]2)cc1 [Compound 25, 4-(3-(2-Chloro-5-(trifluoromethyl)phenyl)-1H-1,2,4-triazol-5-yl)benzoic Acid] | 82.7 | 85.6 | 72.2 | 81.9 | 82.9 | 81.3 | 80.5 | – | – | – | – |
| O=C(O)c1ccc(N/N=C/C2CCCCC2)cc1 [Negative control compound 7, 4-(2-(Cyclohexylmethylene)hydrazinyl)benzoic Acid, reference compound] | – | – | – | – | – | – | – | completely lost | – | – | – |
| O=C(O)c1ccc(-n2ccc(-c3cc(C(F)(F)F)ccc3Cl)n2)cc1 [Compound 30, 4-(3-(2-Chloro-5-(trifluoromethyl)phenyl)-1H-pyrazol-1-yl)benzoic Acid] | 29.4 | 23.4 | 26.1 | 30.9 | 98.3 | 90.3 | 76.4 | – | 41.5 | 39.9 | – |
| CC(C)c1ccc(-c2cc(-c3ccc(C(=O)O)cc3)n[nH]2)cc1 [Compound 28, 4-(5-(4-Isopropylphenyl)-1H-pyrazol-3-yl)benzoic Acid] | 70.6 | 42.6 | 28 | – | 99.9 | 89.5 | 69.1 | – | – | 73.2 | – |
| CC(C)c1ccc(/C=N/Nc2cccc(C(=O)O)c2)cc1 [Negative control compound 4, 3-(2-(4-Isopropylbenzylidene)hydrazineyl)benzoic Acid, reference compound] | – | – | – | – | – | – | – | completely lost | – | – | – |
| O=C(O)c1ccc(-c2cc(-c3cc(C(F)(F)F)ccc3Cl)no2)cc1 [Compound 21, 4-(3-(2-Chloro-5-(trifluoromethyl)phenyl)isoxazol-5-yl)benzoic Acid] | 25.3 | 23 | 38.2 | 13.1 | 95.5 | 98.2 | 106 | – | 23.7 | 29.9 | – |
| O=C(O)c1ccc(-c2cn(-c3cc(C(F)(F)F)ccc3Cl)nn2)cc1 [Compound 23, 4-(1-(2-Chloro-5-(trifluoromethyl)phenyl)-1H-1,2,3-triazol-4-yl)benzoic Acid] | 46.4 | 31.4 | 22.7 | – | 92.9 | 88.5 | 68.9 | – | – | 32.5 | 110 |
| CN(C)c1ccc(-c2cnc(-c3ccc(C(=O)O)cc3)o2)cc1 [Compound 19, 4-(5-(4-(Dimethylamino)phenyl)oxazol-2-yl)benzoic Acid] | 67.6 | 69.9 | 54.5 | 16.9 | 79.4 | 66 | 67.4 | – | – | – | 86.3 |
| O=C(O)c1ccc(-c2cn(-c3cc(C(F)(F)F)ccc3F)nn2)cc1 [Compound 24, 4-(1-(2-Fluoro-5-(trifluoromethyl)phenyl)-1H-1,2,3-triazol-4-yl)benzoic Acid] | 18.1 | 32 | 31.5 | – | 81.5 | 71.3 | 62.9 | – | – | 31.2 | 88.1 |
| CN(CC(O)CO)c1ccc(/C=N/Nc2ccc(C(=O)O)cc2)cc1 (centres unmarked) [Negative control compound 3, 4-(2-(4-((2,3-Dihydroxypropyl)(methyl)amino)benzylidene)hydrazineyl)benzoic Acid, reference compound] | – | – | – | – | – | – | – | tended to notably decrease | – | – | – |
| O=C(O)c1ccc(-c2ncc(-c3cc(C(F)(F)F)ccc3Cl)[nH]2)cc1 [Compound 27, 4-(5-(2-Chloro-5-(trifluoromethyl)phenyl)-1H-imidazol-2-yl)benzoic Acid] | 39.6 | 43.1 | 46.8 | – | 78 | 70 | – | – | 28.6 | 35.1 | 86.2 |
| O=C(O)c1ccc(-c2nc(-c3cc(C(F)(F)F)ccc3Cl)no2)cc1 [Compound 33, 4-(3-(2-Chloro-5-(trifluoromethyl)phenyl)-1,2,4-oxadiazol-5-yl)benzoic Acid] | 37.9 | 25.1 | 28 | 29.7 | 73.5 | 66.7 | 64.3 | – | 57.7 | 48.9 | – |
| CC(C)c1ccc(/C=N/Nc2ccccc2)cc1 [Negative control compound 6, 1-(4-Isopropylbenzylidene)-2-phenylhydrazine, reference compound] | – | – | – | – | – | – | – | completely lost | – | – | – |
| CC(C)c1ccc(/C=N/Nc2ccccc2C(=O)O)cc1 [Negative control compound 5, 2-(2-(4-Isopropylbenzylidene)hydrazineyl)benzoic Acid, reference compound] | – | – | – | – | – | – | – | completely lost | – | – | – |
| O=C(O)c1ccc(-c2cnc(-c3cc(C(F)(F)F)ccc3Cl)o2)cc1 [Compound 20, 4-(2-(2-Chloro-5-(trifluoromethyl)phenyl)oxazol-5-yl)benzoic Acid] | 23.3 | 24.7 | 22.1 | 32.6 | 91.2 | 87.5 | 86.7 | – | 16.9 | 17.7 | – |
| CC(C)c1ccc(-c2cnc(-c3ccc(C(=O)O)cc3)[nH]2)cc1 [Compound 26, 4-(5-(4-Isopropylphenyl)-1H-imidazol-2-yl)benzoic Acid] | – | 45.1 | 26.2 | – | 77.1 | 70.6 | 64.6 | – | – | – | – |
| CC(C)c1ccc(-c2nnc(-c3ccc(C(=O)O)cc3)o2)cc1 [Compound 31, 4-(5-(4-Isopropylphenyl)-1,3,4-oxadiazol-2-yl)benzoic Acid] | – | 53.6 | 24 | – | 97.5 | 79.3 | 65.6 | – | – | – | – |
| CC(C)c1ccc(C(=O)Nc2nnc(-c3ccc(C(=O)O)cc3)s2)cc1 [Compound 34, 4-(5-(4-Isopropylbenzamido)-1,3,4-thiadiazol-2-yl)benzoic Acid] | – | 48.3 | 52.3 | – | 79 | 90.8 | 87.8 | – | – | – | – |
| O=C(O)c1ccc(-c2cc(-c3cc(C(F)(F)F)ccc3Cl)[nH]n2)cc1 [Compound 29, 4-(5-(2-Chloro-5-(trifluoromethyl)phenyl)-1H-pyrazol-3-yl)benzoic Acid] | 52.3 | 61.9 | 40.7 | 63.6 | 88.6 | 77.7 | 86 | – | – | 59.1 | – |
| CN(C)c1ccc(/C=N/Nc2ccc(C(=O)O)cc2)c(O)c1 [Negative control compound 2, 4-(2-(4-(Dimethylamino)-2-hydroxybenzylidene)hydrazineyl)benzoic Acid, reference compound] | – | – | – | – | – | – | – | tended to notably decrease | – | – | – |
| CN(C)c1ccc(/C=N/Nc2ccc(C(=O)O)cc2)cc1 [Compound 3, 4-(2-(4-(Dimethylamino)benzylidene)hydrazinyl)benzoic Acid] | – | – | – | – | – | – | – | maintained | – | – | – |
| CC(C)(C)c1ccc(/C=N/Nc2ccc(C(=O)O)cc2)cc1 [Compound 2, 4-(2-(4-(tert-Butyl)benzylidene)hydrazinyl)benzoic Acid] | – | – | – | – | – | – | – | maintained | – | – | – |
